Assay results published in paper PMC10606064, “2-Aminothiazole-Flavonoid Hybrid Derivatives Binding to Tau Protein and Responsible for Antitumor Activity in Glioblastoma” (International Journal of Molecular Sciences, 2023).

How the values were obtained:
U87 shCTRL cells = assay: MTT cell viability assay, U87 shCTRL (expressing Tau); format: cell-based, human; settings: for IC50: Homo sapiens, U87 shCTRL, 72 h, MTT, mean ± SEM, read-out: IC50 (metabolic activity)
Procedure: All cell lines were purchased from ATCC, Gaithersburg, MD, USA. Cells from human glioblastoma (clones U87 wt, HTB-14; U118, HTB-15; U251, HTB-12; U138, HTB-16), neuroblastoma (clone SK-N-SH, HTB-11), and colorectal adenocarcinoma (clone Caco-2, HTB-37) were routinely grown at 37 °C in a humidified atmosphere containing 5% CO2. Cells were maintained by regular passages in complete media supplemented with 10% FBS, 2mM of L-glutamine, 100 U/mL of penicillin, and 50 U/mL of streptomycin (Invitrogen, Paris, France). For U87 wt, U251, U138, and SK-N-SH cells, the medium consisted of EMEM (Lonza, Levallois Perret, France). U118 and Caco-2 lines were maintained in DMEM. The U87 wt-derived lines, U87 shCTRL, and U87 shTau2 cells were continuously maintained in complete EMEM medium supplemented with 0.4 µg/mL of puromycin. The shRNA sequences and the protocol of clone selection and Tau downregulation were previously described in [20]. For Tau expression rescue, the U87 shCTRL and U87 shTau cells were seeded two days prior to experiments at 4.10^5 cells per 60 mm dish in 6 mL of complete medium. Cells were transfected using LipofectAmine 2000 according to Invitrogen instructions and 8 µg EGFP-free plasmid constructs (for U87 shCTRL) and EGFP-hTau40 plasmid constructs (for U87 shTau) were used in total. One day prior to experiments, all cells were plated in a 96-well microtiter plate to prepare for viability assays. Cells were free from mycoplasma as determined by mycoalert tests (Lonza).
(§1) Cells harvested from sub-confluent monolayers were seeded at 15,000 cells per mL in a 96-well microtiter plate (Cambridge Technology, Labège, France) and cultured for 24 h under standard conditions. Standard medium was then replaced by fresh medium containing no drugs or compounds at different concentrations. The surviving cells were quantified after 72 h by the MTT assay, according to the manufacturer’s instructions. Briefly, 20 µL of 3-(4,5-diMethylThiazol-2-yl)-2,5diphenyl Tetrazolium bromide (MTT) solution at 5 mg.mL^−1 was added to cells for 3 h at 37 °C. The supernatant was discarded and replaced by 100 µL of dimethyl sulfoxide to dissolve formazan crystals. The absorbance was then read at 600 nm by spectrophotometry. For all concentrations of a given compound, cell viability was expressed as the percentage of the ratio between the mean absorbance of treated cells and the mean absorbance of untreated cells. Three independent experiments were performed, and the data were expressed as percentage of survival (using the untreated cells as 100%) and subjected to statistical analysis (n = 3). The IC50 was calculated using the Chou and Talalay method.

[1] = tested on: U87 shCTRL and U87 shTau cells; assay: Acridine orange spectrofluorometry (late autophagy); format: cell-based, human; settings: both cell types, 5 µM, 48 h
Procedure: Briefly, 2.10^5 cells in exponential growth were seeded in 6-well plates. After 24 h, they were treated with 5 µM of compounds for 48 h. Trypsinized cells were harvested, counted, and then centrifuged (1200 rpm, 5 min, at RT). The cells pellet was resuspended in 2 mL of acridine orange diluted in complete culture media to a final concentration of 1 µg/mL and incubated for 15 min in the dark. Cells were then collected by centrifugation (1200 rpm, 5 min, at RT). The cells pellet was resuspended in PBS to a suspension concentration of 2.10^5 cells/mL. The suspension was transferred to a quartz cuvette, and then fluorescence emission of acridine orange was measured with a FluoroMax-3 spectrofluorometer (Horiba Jobin Yvon, Palaisseau, France) (excitation at 490 nm).

[2] = tested on: lactate-dehydrogenase (LDH) of U87 shCTRL and U87 shTau cells; assay: LDH activity in the medium (necrosis); format: cell-based; settings: both cell types, 24 h treatment
Procedure: death. (A) The apoptotic protein casp ase 3 (Casp 3) was analy zed by western blot of U87 shCTRL and U87 shTau cells: for each s ample t he ratio between the amount of Casp3 and GAPDH was calculated as relative fold of the reference value (with or without the compound); n = 3 lysates, ns: non-si gnificant. […]
blot used for quantification. (B) The activity of necrotic LDH protein was analy zed by fluorescence emission in U87 shCTRL (upper panel) and U87 shTau (lower panel) cells. For each s ample, the ratio between LDH florescence was calculated as the percentage of activity against reference value (0,1% Triton); n = 3 lysates; Significant statistical differences were calculated using a non-parametric Mann-Whitney test with **P < 0.01; n.s: non-significant.
(1 picture or pasted object on this page, not shown here)

T98G glioblastoma cells = assay: MTT cell viability assay, T98G; format: cell-based; settings: Homo sapiens, 72 h, mean ± SEM, read-out: IC50 (metabolic activity)
Procedure: as §1

Row | IC50 (U87 shCTRL cells) [nM] | IC50 (T98G glioblastoma cells) [nM] | Structure (SMILES) | activity against U87 shCTRL cells compared to U87 shTau cells (U87 shCTRL cells; ratio of IC50 values) [times] | acridine orange fluorescence emission [1] | LDH activity [2]
1 | 1400 ± 500 | 2800 ± 2400 | Nc1nc2ccc3oc(-c4cccc(Oc5ccccc5)c4)cc(=O)c3c2s1 [Compound 2, 2-amino-7-(3-phenoxyphenyl)-9H-chromeno [6,5-d]thiazol-9-one] | 3 | shift to blue emission | remained similar to untreated cells
2 | > 100000 | > 100000 | Nc1nc2ccc3oc(C(=O)O)cc(=O)c3c2s1 [Compound 5] |  | shift to blue emission | remained similar to untreated cells
